Measurements from patent publication US20260224486A1, “DIANHYDROHEXITOL BASED IONIZABLE LIPIDS FOR NUCLEIC ACID DELIVERY” (SANOFI PASTEUR INC., priority 2023, published 2026).

Columns and labels:
[1] = test system: A/Tasmania/503/2020 (H3N2) virus; experiment: Influenza titer: HAI assay on sera of mice immunized IM with Modified Tasmania H3 mRNA-lipid nanoparticles; details: Balb/c mice, 0.4 ug per mouse Modified Tasmania H3 mRNA-LNP IM on day 0 and day 21
[2] = Lipid nanoparticle size and polydispersity index by dynamic light scattering (Malvern Zetasizer); assay type: physicochemical; details: hEPO mRNA LNP, Process A, Cationic Lipid:DMG-PEG2000:Cholesterol:DOPE 40:1.5:28.5:30 mol %, N/P 4
Excerpt: The lipid nanoparticles in the examples of the present invention were formulated using Process A of WO 2018/089801 (see, e.g., Example 1 and FIG. 1 of WO 2018/089801). Process A (“A”) relates to a conventional method of encapsulating mRNA by mixing mRNA with a mixture of lipids, without first pre-forming the lipids into lipid nanoparticles. In an exemplary process, an ethanolic solution of a mixture of lipids (cationic lipid, phosphatidylethanolamine, cholesterol, and polyethylene glycol-lipid) at a fixed lipid to mRNA ratio were combined with an aqueous buffered solution of target mRNA at an acidic pH under controlled conditions to yield a suspension of uniform LNPs. After ultrafiltration and diafiltration into a suitable diluent system, the resulting nanoparticle suspensions were diluted to final concentration, filtered, and stored frozen at −80° C. until use.
(§1) Lipid nanoparticle formulations of Table 1 were prepared by Process A. All of the lipid nanoparticle formulations comprised hEPO mRNA and the different lipids (Cationic Lipid: DMG-PEG2000: Cholesterol: DOPE) in mol % ratios of 40:1.5:28.5:30 (Cationic Lipid: DMG-PEG2000: Cholesterol: DOPE).
The Polydispersity Index (Pdl) of lipid nanoparticles can be determined by diluting the formulation in 10% trehalose at about 0.1 mg/ml mRNA concentration and then measuring the size on Malvern zetasizer. The lipid nanoparticle size can be obtained with Malvern Zetasizer Nano-ZS.
Dynamic light scattering (DLS) measurements were performed using a Malvern Instruments Zetasizer with a backscattering detector angle of 173° and a 4-mW, 633-nm He—Ne laser (Worcestershire, UK). The samples were analyzed by diluting in 10% Trehalose and measuring the size and Poly dispersity Index (PDI) in an optical grade polystyrene cuvette.

[3] = mRNA encapsulation efficiency of lipid nanoparticles (RiboGreen assay); assay type: physicochemical; details: hEPO mRNA LNP, Process A, Cationic Lipid:DMG-PEG2000:Cholesterol:DOPE 40:1.5:28.5:30 mol %, N/P 4
Excerpt: In embodiments, the lipid nanoparticle encapsulates a nucleic acid, optionally an mRNA encoding a peptide or protein. In embodiments, the lipid nanoparticle encapsulates an mRNA encoding a peptide or protein, optionally for use in a vaccine. In embodiments, the peptide is an antigen. As used herein, the phrase “encapsulation percentage” refers to the fraction of therapeutic agent (e.g. mRNA) that is effectively encapsulated within a liposomal-based vehicle (e.g. a lipid nanoparticle) relative to the initial fraction of therapeutic agent present in the lipid phase. In embodiments, the lipid nanoparticles have an encapsulation percentage for mRNA of at least 50%. In embodiments, the lipid nanoparticles have an encapsulation percentage for mRNA of at least 55%. In embodiments, the lipid nanoparticles have an encapsulation percentage for mRNA of at least 60%. In embodiments, the lipid nanoparticles have an encapsulation percentage for mRNA of at least 65%. In embodiments, the lipid nanoparticles have an encapsulation percentage for mRNA of at least 70%. In embodiments, the lipid nanoparticles have an encapsulation percentage for mRNA of at least 75%. In embodiments, the lipid nanoparticles have an encapsulation percentage for mRNA of at least 80%. In embodiments, the lipid nanoparticles have an encapsulation percentage for mRNA of at least 85%. In embodiments, the lipid nanoparticles have an encapsulation percentage for mRNA of at least 90%. In embodiments, the lipid nanoparticles have an encapsulation percentage for mRNA of at least 95%. In embodiments, the encapsulation percentage is calculated by performing the Ribogreen assay (Invitrogen) with and without the presence of 0.1% Triton-X 100.
as §1
The RiboGreen Assay is a fluorescence-based method for the determination of mRNA concentration (Total and Free) and % encapsulation using Quant-iT™ RiboGreen® RNA reagent in mRNA containing lipid nanoparticles.
• To each of the standards (Blank, mRNA-1, mRNA-2. mRNA-3, mRNA-4, mRNA-5) and Samples (free mRNA and total mRNA), add 1.0 mL of 200-fold Ribogreen Reagent Solution and gently mix by inversion. This is a 2× Dilution. • Add 200 μL of each standard and sample in triplicate using the reverse pipetting technique in a 96-well Costar Black with Clear Background Plate. Ensure no bubbles are present in the plate before the fluorescence reading. • Read the fluorescence signal using the below instrument parameters: • Read Type: Fluorescence, Bottom Read • Excitation: 485 nm; Cut-off: 515 nm; Emission: 530 nm • Plate Type: 96-well Costar Black with Clear Background
The average fluorescence from each calibration standard is plotted against the concentration to generate a linear calibration curve using the MS Excel software. The coefficient of determination (R^2) of calibration curve must be R^2>0.99.
[formula] • Where, • Y=average fluorescence value • m: slope • x: concentration (pg/mL) • c: y-intercept • Using the linear equation, calculate the concentration of free and total mRNA concentration in the test sample by replacing the y value in the equation with the average fluorescence value of each respective sample • Once the concentration is determined, the actual concentration in the sample can be back-calculated by multiplying the concentration in the test sample with the dilution factor (DF) as follows:
[formula] [formula] • Concentration of encapsulated mRNA can be determined by subtracting the concentration of free mRNA from the total mRNA. • % Encapsulation can then be calculated by taking the ratio of encapsulated mRNA over total mRNA and multiplying the result with 100.

[4] = test system: BALB/cJ mice; experiment: Delivery of hEPO mRNA by intramuscular administration of LNPs; serum hEPO by ELISA; assay type: in vivo, Mouse; details: for hEPO 24 Hr (ng/ml) Mean: mouse serum 24 hours post single IM injection of 0.1 μg hEPO mRNA LNP
Outline: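 Female BALB/cJ mice, 6-8 weeks, given a single IM injection of 0.1 μg hEPO mRNA LNPs into right gastrocnemius under light isoflurane. Serum taken at 6 and 24 h post dose and terminally by cardiac puncture; hEPO measured by ELISA ("shaker" protocol), samples diluted 1:40 to 1:100.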

[5] = Table 2, isosorbide-derived lipids, mouse serum 6 hours post single IM injection of 0.1 μg hEPO mRNA LNP
[6] = Table 2, isosorbide-derived lipids
[7] = Table 4, further lipids, mouse serum 6 hours post IM injection of hEPO mRNA LNP as in example 3

Compound	HAI GMT [1]	Polydispersity Index (PDI) [2]	Size (nm) [2]	Encapsulation efficiency (EE) % [3]	hEPO 6 Hr (ng/mL) Mean ([4]; Table 3, isomannide-derived lipids, mouse serum 6 hours post single IM injection of 0.1 μg hEPO mRNA LNP)	hEPO 24 Hr (ng/ml) Mean ([4]; Table 3, isomannide-derived lipids)	hEPO 6 Hr (ng/ml) Mean [4, 5]	hEPO 24 Hr (ng/ml) Mean [4, 6]	hEPO 6 Hr (ng/ml) Mean [4, 7]
CCCCCCCCCCC(O)CN(CCCC(=O)O[C@H]1CO[C@H]2[C@@H]1OC[C@H]2OC(=O)CCCN(CC(O)CCCCCCCCCC)CC(O)CCCCCCCCCC)CC(O)CCCCCCCCCC (stereo in doubt) [Compound 3]	320	0.11	95 nm	86%	37.4 ng/mL	18.9 ng/mL			
CCCCCCCCCCC(O)CN(CCCC(=O)O[C@H]1CO[C@H]2[C@@H]1OC[C@H]2OC(=O)CCCN(CC(O)CCCCCCCCCC)CC(O)CCCCCCCCCC)CC(O)CCCCCCCCCC (stereo partly shown) [Compound 24]	190	0.11	88 nm	83%			30.2 ng/mL	19.4 ng/mL	
CCCCCCCCCCC(O)CN(CCCOC(=O)O[C@H]1CO[C@H]2[C@@H]1OC[C@H]2OC(=O)OCCCN(CC(O)CCCCCCCCCC)CC(O)CCCCCCCCCC)CC(O)CCCCCCCCCC (stereo partly shown) [Compound 40]		0.11	84 nm	66%			11.9 ng/mL	7 ng/mL	
CCCCCCCCC(O)CN(CCCC(=O)N[C@H]1CO[C@H]2[C@@H]1OC[C@@H]2NC(=O)CCCN(CC(O)CCCCCCCC)CC(O)CCCCCCCC)CC(O)CCCCCCCC (stereo partly shown) [Compound 51]		0.12	71 nm	81%					47.6 ng/mL
CCCCCCCCCCC(O)CN(CCCC(=O)N[C@H]1CO[C@H]2[C@@H]1OC[C@@H]2NC(=O)CCCN(CC(O)CCCCCCCCCC)CC(O)CCCCCCCCCC)CC(O)CCCCCCCCCC (stereo partly shown) [Compound 52]		0.14	74 nm	95%					72.7 ng/mL
CCCCCCCCCCCCC(O)CN(CCCOC(=O)N[C@H]1CO[C@H]2[C@@H]1OC[C@@H]2NC(=O)OCCCN(CC(O)CCCCCCCCCCCC)CC(O)CCCCCCCCCCCC)CC(O)CCCCCCCCCCCC (stereo partly shown) [Compound 53]		0.2	97 nm	96%					72.0 ng/mL
CCCCCCCCCCC(O)CN(CCCSC(=O)N[C@H]1CO[C@H]2[C@@H]1OC[C@@H]2NC(=O)SCCCN(CC(O)CCCCCCCCCC)CC(O)CCCCCCCCCC)CC(O)CCCCCCCCCC (stereo partly shown) [Compound 54]		1.6	79 nm	87%					12.0 ng/mL
CCCCCCCCCCCCC(O)CN(CCCC(=O)N[C@H]1CO[C@H]2[C@@H]1OC[C@@H]2NC(=O)CCCN(CC(O)CCCCCCCCCCCC)CC(O)CCCCCCCCCCCC)CC(O)CCCCCCCCCCCC (stereo partly shown) [Compound 55]		0.15	101 nm	99%					30.9 ng/mL
